Reference: patent US20050197350A1, “Novel quinoline, tetrahydroquinazoline, and pyrimidine derivatives and methods of treatment related to the use thereof” (TAISHO PHARMACEUTICAL CO., LTD., priority 2003, published 2005)

The compounds below were run on MCH receptors (assay: MCH receptor activity class (method not given)). Conditions: not given.
COc1cc(OC)cc(C(=O)N[C@H]2CC[C@@H](Nc3cc(C)c4ccccc4n3)CC2)c1 [Example 2553, 3,5-dimethoxy-N-{cis-4-[(4-methylquinolin-2-yl)amino]cyclohexyl}benzamide] gave a class of 1.

Same assay, conditions: MCH receptor activity class 1-3 (percent of control at 10^-7 M or IC50)
With CN(C)c1ccnc(N[C@H]2CC[C@@H](NC(=S)NCc3ccccc3Cl)CC2)n1 [compound 2324] the class was 3 (Class 3 The value of percent of control at 10^−7 M was more than 60% or the value of IC50 was more than 200 nM.).
For Cc1cc(Br)cc(C)c1NC(=O)NC[C@H]1CC[C@@H](Nc2nccc(N(C)C)n2)CC1 [compound 2436, N-(4-bromo-2,6-dimethylphenyl)-N′-[(cis-4-{[4-(dimethylamino)pyrimidin-2-yl]amino}cyclohexyl)methyl]urea], the class was 1 (Class 1: The value of percent of control at 10^−7 M was less than 40% or the value of IC50 was less than 50 nM.).
In the case of CN(C)c1ccnc(N[C@H]2CC[C@@H](CNC(=O)Nc3c(F)cc(Br)cc3Br)CC2)n1 [compound 2417], the class is reported as 1 (Class 1: The value of percent of control at 10^−7 M was less than 40% or the value of IC50 was less than 50 nM.).
With Cc1cc(NC(=O)NC[C@H]2CC[C@@H](Nc3cc(N(C)C)c4ccccc4n3)CC2)c(C(F)(F)F)o1 [compound 2392] the class was 3 (Class 3 The value of percent of control at 10^−7 M was more than 60% or the value of IC50 was more than 200 nM.).

Same assay, conditions: activity class 1-3: percent of control at 10^-7 M or IC50
COC(CN[C@H]1CC[C@@H](Nc2nccc(N(C)C)n2)CC1)c1ccccc1 (relative stereo) [compound 1516] was tested, and the class was 3 (Class 3 The value of percent of control at 10^−7 M was more than 60% or the value of IC50 was more than 200 nM.).
In the case of CN(C)c1nc(N[C@H]2CC[C@@H](CNC(=O)Oc3cccc(C(F)(F)F)c3)CC2)nc2c1CCCC2 [compound 1602], the class is reported as 3 (Class 3 The value of percent of control at 10^−7 M was more than 60% or the value of IC50 was more than 200 nM.).
CN(C)c1ccnc(N[C@H]2CC[C@@H](CNC(=O)Oc3ccccc3)CC2)n1 [compound 1652] was tested, and the class was 3 (Class 3 The value of percent of control at 10^−7 M was more than 60% or the value of IC50 was more than 200 nM.).
In the case of COc1ccc(CCCCNC[C@H]2CC[C@@H](Nc3nccc(N(C)C)n3)CC2)cc1 [compound 1525], the class is reported as 3 (Class 3 The value of percent of control at 10^−7 M was more than 60% or the value of IC50 was more than 200 nM.).
CCOC(=O)NC[C@H]1CC[C@@H](Nc2nc3c(c(N(C)C)n2)CCCC3)CC1 [compound 1607] was tested, and the class was 3 (Class 3 The value of percent of control at 10^−7 M was more than 60% or the value of IC50 was more than 200 nM.).
For CCOC(=O)NC[C@H]1CC[C@@H](Nc2cc(N(C)C)c3ccccc3n2)CC1 [compound 1567], the class was 3 (Class 3 The value of percent of control at 10^−7 M was more than 60% or the value of IC50 was more than 200 nM.).

Same assay, conditions: activity class per percent of control at 10^-7 M or IC50
In the case of CCc1cccc2c(C(CC(=O)c3ccc(C(C)(C)C)cc3)C(=O)N[C@H]3CC[C@@H](Nc4nc5c(c(N(C)C)n4)CCCC5)CC3)c[nH]c12 (relative stereo) [compound 996], the class is reported as 1 (Class 1: The value of percent of control at 10^−7 M was less than 40% or the value of IC50 was less than 50 nM.).
CN(C)c1nc(N[C@H]2CC[C@@H](NC(=O)c3cc([N+](=O)[O-])cn3C)CC2)nc2c1CCCC2 [compound 1044] was tested, and the class was 1 (Class 1: The value of percent of control at 10^−7 M was less than 40% or the value of IC50 was less than 50 nM.).
With CN(C)c1nc(N[C@H]2CC[C@@H](NC(=O)Cc3c[nH]c4ccccc34)CC2)nc2c1CCCC2 [compound 986, N-(cis-4-{[4-(diniethylamino)-5,6,7,8-tetrahydroquinazolin-2-yl]amino}cyclohexyl)-2-(1H-indol-3-yl)acetamide] the class was 1 (Class 1: The value of percent of control at 10^−7 M was less than 40% or the value of IC50 was less than 50 nM.).
With COc1ccc2ccccc2c1CN[C@H]1CC[C@@H](Nc2cc(N(C)C)c3ccccc3n2)CC1 [compound 1091] the class was 3 (Class 3 The value of percent of control at 10^−7 M was more than 60% or the value of IC50 was more than 200 nM.).

Same assay, conditions: class 1-3 by percent of control at 10^-7 M or IC50
For CN(C)c1nc(N[C@H]2CC[C@@H](CNC(=O)c3ccc(F)c(F)c3)CC2)nc2c1CCCC2 [compound 595], the class was 3 (Class 3 The value of percent of control at 10^−7 M was more than 60% or the value of IC50 was more than 200 nM.).
CN(C)c1nc(N[C@H]2CC[C@@H](NC(=O)c3ccc(F)cc3F)CC2)nc2c1CCCC2 [compound 562] was tested, and the class was 3 (Class 3 The value of percent of control at 10^−7 M was more than 60% or the value of IC50 was more than 200 nM.).
With CCOc1ccc2ccccc2c1C(=O)N[C@H]1CC[C@@H](Nc2nc3c(c(N(C)C)n2)CCCC3)CC1 [compound 565] the class was 3 (Class 3 The value of percent of control at 10^−7 M was more than 60% or the value of IC50 was more than 200 nM.).
In the case of CN(C)c1ccnc(N[C@H]2CC[C@@H](CNC(=O)c3c(F)ccc(F)c3F)CC2)n1 [compound 445], the class is reported as 3 (Class 3 The value of percent of control at 10^−7 M was more than 60% or the value of IC50 was more than 200 nM.).
For CN(C)c1nc(N[C@H]2CC[C@@H](NC(=O)C3CCCC3)CC2)nc2c1CCCC2 [compound 561], the class was 3 (Class 3 The value of percent of control at 10^−7 M was more than 60% or the value of IC50 was more than 200 nM.).

Same assay, conditions: class by percent of control at 10^-7 M or IC50
In the case of CN(C)c1cc(N[C@H]2CC[C@@H](CNC(=O)c3c(F)cccc3Cl)CC2)nc2ccccc12 [compound 232], the class is reported as 3 (Class 3 The value of percent of control at 10^−7 M was more than 60% or the value of IC50 was more than 200 nM.).
CN(C)c1nc(N[C@H]2CC[C@@H](CNC(=O)c3ccc4c(c3)OCO4)CC2)nc2c1CCCC2 [compound 609] was tested, and the class was 3 (Class 3 The value of percent of control at 10^−7 M was more than 60% or the value of IC50 was more than 200 nM.).
With COc1cccc(CNC[C@H]2CC[C@@H](Nc3cc(N(C)C)c4ccccc4n3)CC2)c1OC [compound 1176] the class was 3 (Class 3 The value of percent of control at 10^−7 M was more than 60% or the value of IC50 was more than 200 nM.).
With COc1ccc(C)cc1NC(=O)N[C@H]1CC[C@@H](Nc2nc3c(c(N(C)C)n2)CCCC3)CC1 [compound 1801] the class was 3 (Class 3 The value of percent of control at 10^−7 M was more than 60% or the value of IC50 was more than 200 nM.).
CN(C)c1ccnc(N[C@H]2CC[C@@H](NC(=O)c3ccc(F)c(Cl)c3F)CC2)n1 [compound 280] was tested, and the class was 3 (Class 3 The value of percent of control at 10^−7 M was more than 60% or the value of IC50 was more than 200 nM.).
In the case of CCOc1cc(CNC[C@H]2CC[C@@H](Nc3nc4c(c(N(C)C)n3)CCCC4)CC2)ccc1O [compound 1401], the class is reported as 2 (Class 2: The value of percent of control at 10^−7 M was from 40% to 60% or the value of IC′50 was from 50 nM to 200 nM.).
With CN(C)c1cc(N[C@H]2CC[C@@H](NC(=O)C(CC(=O)c3ccccc3)c3c[nH]c4ccccc34)CC2)nc2ccccc12 (relative stereo) [compound 716, N-(cis-4-{[4-(dimethylamino)quinolin-2-yl]amino}cyclohexyl)-2-(1H-indol-3-yl)-4-oxo-4-phenylbutanamide] the class was 2 (Class 2: The value of percent of control at 10^−7 M was from 40% to 60% or the value of IC′50 was from 50 nM to 200 nM.).
For CN(C)c1cc(N[C@H]2CC[C@@H](CNC(=O)c3c(Cl)cc(Cl)cc3Cl)CC2)nc2ccccc12 [compound 233], the class was 1 (Class 1: The value of percent of control at 10^−7 M was less than 40% or the value of IC50 was less than 50 nM.).
CN(C)c1ccnc(N[C@H]2CC[C@@H](NC(=O)c3cc(C(F)(F)F)ccc3F)CC2)n1 [compound 283] was tested, and the class was 3 (Class 3 The value of percent of control at 10^−7 M was more than 60% or the value of IC50 was more than 200 nM.).
CCSC(C(=O)N[C@H]1CC[C@@H](Nc2nccc(N(C)C)n2)CC1)(c1ccccc1)c1ccccc1 [compound 874, N-(cis-4-{[4-(dimethylamino)pyrimidin-2-yl]amino}cyclohexyl)-2-(ethylthio)-2,2-diphenylacetamide] was tested, and the class was 1 (Class 1: The value of percent of control at 10^−7 M was less than 40% or the value of IC50 was less than 50 nM.).
In the case of Cc1cc(C)c(C(=O)NC[C@H]2CC[C@@H](Nc3nc4c(c(N(C)C)n3)CCCC4)CC2)c(C)c1 [compound 666], the class is reported as 2 (Class 2: The value of percent of control at 10^−7 M was from 40% to 60% or the value of IC′50 was from 50 nM to 200 nM.).
In the case of CN(C)c1ccnc(N[C@H]2CC[C@@H](CNC(=O)c3cccs3)CC2)n1 [compound 397], the class is reported as 3 (Class 3 The value of percent of control at 10^−7 M was more than 60% or the value of IC50 was more than 200 nM.).
C[C@H](C(=O)N[C@H]1CC[C@@H](Nc2nccc(N(C)C)n2)CC1)c1cccc(C(=O)c2ccccc2)c1 [compound 878, (2S)-2-(3-benzoylphenyl)-N-(cis-4-{[4-(dimethylamino)pyrimidin-2-yl]amino}cyclohexyl)propanamide] was tested, and the class was 2 (Class 2: The value of percent of control at 10^−7 M was from 40% to 60% or the value of IC′50 was from 50 nM to 200 nM.).
For COc1ccc(C(=O)N[C@H]2CC[C@@H](Nc3nccc(N(C)C)n3)CC2)cc1OC [compound 322], the class was 3 (Class 3 The value of percent of control at 10^−7 M was more than 60% or the value of IC50 was more than 200 nM.).

Same assay, conditions: class by percent of control at 10^−7 M or IC50
With Cc1ccc(C(=O)N[C@H]2CC[C@@H](CNc3ncc(C)c(N(C)C)n3)CC2)cc1F [compound 2717] the class was 3 (Class 3 The value of percent of control at 10^−7 M was more than 60% or the value of IC50 was more than 200 nM.).
With Cc1cnc(N[C@H]2CC[C@@H](NC(=O)c3ccc(C(F)(F)F)cc3)CC2)nc1N(C)C [compound 2912, N-(cis-4-{[4-(dimethylamino)-5-methylpyrimidin-2-yl]amino}cyclohexyl)-4-(trifluoromethyl)benzamide] the class was 1 (Class 1: The value of percent of control at 10^−7 M was less than 40% or the value of IC50 was less than 50 nM.).
Cc1cnc(N[C@H]2CC[C@@H](C(=O)N[C@H](C)c3ccc(F)cc3)CC2)nc1N(C)C [compound 2773, cis-4-{[4-(dimethylamino)-5-methylpyrimidin-2-yl]amino}-N-[(1R)-1-(4-fluorophenyl)ethyl]cyclohexanecarboxamide] was tested, and the class was 1 (Class 1: The value of percent of control at 10^−7 M was less than 40% or the value of IC50 was less than 50 nM.).
